Measurements as given in US20080269213A1, “8-Hydroxyquinoline compounds and methods thereof” (Wyeth, priority 2006, published 2008).
Values joined by “and” are separate entries in the source; they are usually repeats but may differ in a detail not shown here. Identical values can stand only once. Like-named read-outs stand apart in the source and are kept apart here.

Legend:
[1] = molecular target: T1, Agg-1 (Homo sapiens, UniProt O75173); assay: Agg-1 FRET assay; type: biochemical
T1 sequence (O75173 213-837): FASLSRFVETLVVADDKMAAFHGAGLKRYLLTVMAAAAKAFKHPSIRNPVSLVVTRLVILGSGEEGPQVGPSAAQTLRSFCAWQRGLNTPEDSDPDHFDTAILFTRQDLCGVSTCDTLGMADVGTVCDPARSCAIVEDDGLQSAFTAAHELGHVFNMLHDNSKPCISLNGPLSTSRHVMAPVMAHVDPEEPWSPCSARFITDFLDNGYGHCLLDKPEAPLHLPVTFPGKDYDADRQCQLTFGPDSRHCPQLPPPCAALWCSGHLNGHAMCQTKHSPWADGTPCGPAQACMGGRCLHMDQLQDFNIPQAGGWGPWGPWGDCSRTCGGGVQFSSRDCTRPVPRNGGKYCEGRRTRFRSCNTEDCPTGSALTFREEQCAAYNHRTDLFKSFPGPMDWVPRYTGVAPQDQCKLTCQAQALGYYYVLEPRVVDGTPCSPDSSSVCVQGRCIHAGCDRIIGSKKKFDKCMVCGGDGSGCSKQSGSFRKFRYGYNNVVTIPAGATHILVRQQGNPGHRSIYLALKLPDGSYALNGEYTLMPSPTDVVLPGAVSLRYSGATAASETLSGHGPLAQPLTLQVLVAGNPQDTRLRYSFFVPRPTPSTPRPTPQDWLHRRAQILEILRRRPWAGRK
Text: The Agg-1/Agg-2 FRET data for N-[(8-hydroxyquinolin-2-yl)(phenyl)methyl]-2-phenoxyacetamide and 2-{[(phenoxyacetyl)amino](phenyl)methyl}quinolin-8-yl phenoxyacetate is presented in Table 1.

[2] = molecular target: T2, recombinant human Aggrecanase-2 Agg2-Phe628 (Homo sapiens, UniProt Q9UNA0); assay: Aggrecanase 2 in vitro enzyme assay (Agg-2 FRET, quenched fluorescent peptide substrate); type: biochemical; parameters: purified recombinant human Aggrecanase-2 Agg2-Phe628 (MW=41,737); This is a truncated form of full-length human aggrecanase-2; made in house; host or cells: CHO cells; details: for Agg-2 FRET Median PCT INHIB: concentration not given; for inhibition at […]: @ 2500 nM
T2 sequence (Q9UNA0 262-628 limits assumed): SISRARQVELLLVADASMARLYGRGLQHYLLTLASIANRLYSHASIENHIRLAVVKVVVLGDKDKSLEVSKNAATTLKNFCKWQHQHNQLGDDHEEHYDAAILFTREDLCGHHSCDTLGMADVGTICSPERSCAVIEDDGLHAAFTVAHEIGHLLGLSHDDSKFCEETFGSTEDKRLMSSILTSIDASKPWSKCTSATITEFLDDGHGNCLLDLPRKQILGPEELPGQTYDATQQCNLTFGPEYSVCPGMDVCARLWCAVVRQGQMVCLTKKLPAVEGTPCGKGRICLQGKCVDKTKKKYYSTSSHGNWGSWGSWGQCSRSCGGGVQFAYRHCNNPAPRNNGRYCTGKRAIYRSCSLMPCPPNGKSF
Method in brief: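 Continuous FRET assay with purified truncated human Aggrecanase-2 Agg2-Phe628 (CHO-expressed, 0.5 μg/ml final) and brevican-derived Abz/Dnp peptide (25 μM final) in 50 mM HEPES pH 7.5, 100 mM NaCl, 5 mM CaCl2, 0.1% CHAPS, 5% glycerol. Enzyme preincubated with compound before substrate; fluorescence (ex 340/em 420 nm) followed kinetically 40 min at 30 °C.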

[3] = read-out: Agg-2 FRET Median IC50
[4] = read-out: Agg-1 IC50 (μM) or % Inhibition
[5] = IC50, read-out: Agg-2 IC50 (μM) or % Inhibition

O=C(NC(c1ccccn1)c1cc(Cl)c2cccnc2c1O)OCc1ccccc1 (stereo not shown) [Example 183, benzyl [(5-chloro-8-hydroxyquinolin-7-yl)(pyridin-2-yl)methyl]carbamate]
IC50 ([1]; read-out: Agg1 IC50): > 67 µM
Agg-2 FRET Median PCT INHIB [2]: 50%
IC50 ([2]; read-out: Agg2 IC50): ~2.5 µM

COc1ccc(C(NC(=O)COc2ccccc2)c2cc(Cl)c3cccnc3c2O)cc1OC (stereo not shown) [N-[(5-chloro-8-hydroxyquinolin-7-yl)(3,4-dimethoxyphenyl)methyl]-2-phenoxyacetamide]
IC50 ([1]; read-out: Agg1 IC50): > 1.5 µM
IC50 [2, 3]: 1.06 µM and 5.19 µM

O=C(CNCc1cccc2ccccc12)NC(c1ccccc1)c1cc(Br)c2cccnc2c1O (stereo not shown) [Example 222, N-[(5-bromo-8-hydroxyquinolin-7-yl)(phenyl)methyl]-N2-(1-naphthylmethyl)glycinamide]
IC50 ([1]; read-out: Agg1 IC50): 7.4 to 20 µM
IC50 ([2]; read-out: Agg2 IC50): 1.2 to 3.7 µM

O=C(CNCc1cccc2ccccc12)NC(c1ccccc1Cl)c1cc(Cl)c2cccnc2c1O (stereo not shown) [Example 231, N-[(5-chloro-8-hydroxyquinolin-7-yl)(2-chlorophenyl)methyl]-N2-(1-naphthylmethyl)glycinamide]
IC50 ([1]; read-out: Agg1 IC50): ~20 µM
IC50 ([2]; read-out: Agg2 IC50): 1.37 µM

O=C(Cc1ccccc1)NC(c1ccccc1)c1cc(Cl)c2cccnc2c1O (stereo not shown) [N-[(5-chloro-8-hydroxyquinolin-7-yl)(phenyl)methyl]-2-phenylacetamide]
inhibition at […] ([1]; @ 1200 nM, read-out: Agg1 %): 20%
IC50 ([2]; read-out: Agg2 IC50): 2.53 µM
IC50 [2, 3]: 2.53 µM

CCN(CC)c1ccc(C(NC(=O)COc2ccccc2)c2cc(Cl)c3cccnc3c2O)cc1 (stereo not shown) [Example 135, N-{(5-chloro-8-hydroxyquinolin-7-yl)[4-(diethylamino)phenyl]methyl}-2-phenoxyacetamide]
IC50 ([1]; read-out: Agg1 IC50): 22 to 67 µM
IC50 ([2]; read-out: Agg2 IC50): 2.8 µM

O=C(COc1ccccc1)NC(CCc1ccccc1)c1cc(Cl)c2cccnc2c1O (stereo not shown) [N-[1-(5-chloro-8-hydroxyquinolin-7-yl)-3-phenylpropyl]-2-phenoxyacetamide]
inhibition at 22 µM ([1]; @ 22000 nM, read-out: Agg1 %): 56%
IC50 ([2]; read-out: Agg2 IC50): 1.7 µM

O=C(NC(c1ccccc1)c1cc(Cl)c2cccnc2c1O)OCc1ccccc1 (stereo not shown) [benzyl [(5-chloro-8-hydroxyquinolin-7-yl)(phenyl)methyl]carbamate]
IC50 ([1]; read-out: Agg1 IC50): > 100 µM
Agg-2 FRET Median PCT INHIB [2]: 46%
IC50 ([2]; read-out: Agg2 IC50): > 67 µM

CCc1cccc(OCC(=O)NC(c2ccccc2Cl)c2cc(Cl)c3cccnc3c2O)c1 (stereo not shown) [N-[(5-chloro-8-hydroxyquinolin-7-yl)(2-chlorophenyl)methyl]-2-(3-ethylphenoxy)acetamide]
inhibition at 10 µM ([1]; @ 10000 nM, read-out: Agg1 %): 48%
IC50 ([2]; read-out: Agg2 IC50): 1.28 µM

O=C(COc1ccccc1)NC(c1ccccc1)c1ccc2cccc(OC(=O)COc3ccccc3)c2n1 (stereo not shown) [Example 277, 2-{[(phenoxyacetyl)amino](phenyl)methyl}quinolin-8-yl phenoxyacetate]
IC50 ([1]; read-out: FRET IC50 Agg-1): 4 µM
inhibition at 200 µM ([2]; @ 200 (μM), read-out: Agg-2 FRET % (printed in FRET IC50 column)): 52%

CC(C)(C)c1csc(-c2ccc(C(NC(=O)COc3ccccc3)c3cc(Cl)c4cccnc4c3O)cc2)n1 (stereo not shown) [Example 146, N-[[4-(4-tert-butyl-1,3-thiazol-2-yl)phenyl](5-chloro-8-hydroxyquinolin-7-yl)methyl]-2-phenoxyacetamide]
inhibition at 66.7 µM ([1]; @ 66700 nM, read-out: Agg1 %): 42%
inhibition at 11 µM ([2]; @ 11000 nM): 49%

Nc1cc(C(NC(=O)COc2ccccc2)c2ccccc2)c(O)c2ncccc12 (stereo not shown) [N-[(5-amino-8-hydroxyquinolin-7-yl)(phenyl)methyl]-2-phenoxyacetamide]
inhibition at 22.2 µM ([1]; @ 22200 nM, read-out: Agg1 %): 57%
inhibition at 22.2 µM ([2]; @ 22200 nM): 50%

O=C(COc1ccc2c(c1)OCO2)NC(c1ccccc1Cl)c1cc(Cl)c2cccnc2c1O (stereo not shown) [Example 221, 2-(1,3-benzodioxol-5-yloxy)-N-[(5-chloro-8-hydroxyquinolin-7-yl)(2-chlorophenyl)methyl]acetamide]
IC50 ([1]; read-out: Agg1 IC50): 7.4 to 20 µM
IC50 ([2]; read-out: Agg2 IC50): 1 µM

O=C(O)Cc1cccc(C(NC(=O)COc2ccccc2)c2cc(Cl)c3cccnc3c2O)c1 (stereo not shown) [Example 208, (3-{(5-chloro-8-hydroxyquinolin-7-yl)[(phenoxyacetyl)amino]methyl}phenyl)acetic acid]
inhibition at […] ([1]; @ 2500 nM, read-out: Agg1 %): 37%
IC50 ([2]; read-out: Agg2 IC50): 4.48 µM
IC50 [2, 3]: 4.48 µM

O=C(COc1ccc(C2CCCC2)cc1)NC(c1ccccc1Cl)c1cc(Cl)c2cccnc2c1O (stereo not shown) [N-[(5-chloro-8-hydroxyquinolin-7-yl)(2-chlorophenyl)methyl]-2-(4-cyclopentylphenoxy)acetamide]
IC50 ([1]; read-out: Agg1 IC50): > 20 µM
IC50 ([2]; read-out: Agg2 IC50): 2.4 µM

O=C(COc1ccccc1)NC(c1ccc(-c2ccncc2)cc1)c1cc(Cl)c2cccnc2c1O (stereo not shown) [N-[(5-chloro-8-hydroxyquinolin-7-yl)(4-pyridin-4-ylphenyl)methyl]-2-phenoxyacetamide]
IC50 ([1]; read-out: Agg1 IC50): 4.7 µM
inhibition at 0.8 µM ([2]; @ 800 nM): 48%

O=C(COc1ccccc1)NC(Cc1cc(Cl)c2cccnc2c1O)c1ccc2c(c1)OCO2 (stereo not shown)
inhibition at 22 µM [1, 4]: 67%
IC50 [2, 5]: 9.6 µM

O=C(COc1ccccc1)NC(c1ccoc1)c1cc(Cl)c2cccnc2c1O (stereo not shown) [N-[(5-chloro-8-hydroxyquinolin-7-yl)(3-furyl)methyl]-2-phenoxyacetamide]
IC50 ([1]; read-out: Agg1 IC50): > 22 µM
IC50 ([2]; read-out: Agg2 IC50): 3.46 µM
IC50 [2, 3]: 3.46 µM

O=C(COc1ccc(-c2ccccc2)cc1)NC(c1ccccc1)c1cc(Cl)c2cccnc2c1O (stereo not shown) [2-(biphenyl-4-yloxy)-N-[(5-chloro-8-hydroxyquinolin-7-yl)(phenyl)methyl]acetamide]
IC50 ([1]; read-out: Agg1 IC50): 7.4 to 20 µM
IC50 ([2]; read-out: Agg2 IC50): 2 µM

Cn1c(C(NC(=O)COc2ccccc2)c2cc(Cl)c3cccnc3c2O)cc2ccccc21 (stereo not shown) [N-[(5-chloro-8-hydroxyquinolin-7-yl)(1-methyl-1H-indol-2-yl)methyl]-2-phenoxyacetamide]
inhibition at 11 µM ([1]; @ 11000 nM, read-out: Agg1 %): 48%
inhibition at […] [2]: 57%

O=C(Cc1ccccc1)NC(/C=C/c1ccccc1)c1cc(Cl)c2cccnc2c1O (stereo not shown) [N-[(2E)-1-(5-chloro-8-hydroxyquinolin-7-yl)-3-phenylprop-2-en-1-yl]-2-phenylacetamide]
inhibition at 20 µM ([1]; @ 20000 nM, read-out: Agg1 %): 45%
IC50 ([2]; read-out: Agg2 IC50): 50 µM
IC50 [2, 3]: 50 µM

CC(C)c1ccc(OCC(=O)NC(c2ccccc2Cl)c2cc(Cl)c3cccnc3c2O)cc1 (stereo not shown) [N-[(5-chloro-8-hydroxyquinolin-7-yl)(2-chlorophenyl)methyl]-2-(4-isopropylphenoxy)acetamide]
inhibition at 50 µM ([1]; @ 50000 nM, read-out: Agg1 %): 56%
IC50 ([2]; read-out: Agg2 IC50): 1.4 µM

COc1ccc(C(NC(=O)COc2ccccc2)c2cc(Cl)c3cccnc3c2O)c2ccccc12 (stereo not shown) [N-[(5-chloro-8-hydroxyquinolin-7-yl)(4-methoxy-1-naphthyl)methyl]-2-phenoxyacetamide]
inhibition at 22 µM ([1]; @ 22000 nM, read-out: Agg1 %): 62%
IC50 ([2]; read-out: Agg2 IC50): 0.8 µM

CCCc1ccc(OCC(=O)NC(c2ccccc2Cl)c2cc(Cl)c3cccnc3c2O)cc1 (stereo not shown) [N-[(5-chloro-8-hydroxyquinolin-7-yl)(2-chlorophenyl)methyl]-2-(4-propylphenoxy)acetamide]
inhibition at […] ([1]; @ 1100 nM, read-out: Agg1 %): 44%
inhibition at […] [2]: 47%

O=C(COc1ccccc1)NC(Cc1cc(Cl)c2cccnc2c1O)c1cccc(CN2CCCC2)c1 (stereo not shown)
inhibition at 200 µM [1, 4]: 56%
IC50 [2, 5]: 20 µM

CCCCOc1ccc(C(NC(=O)COc2ccccc2)c2cc(Cl)c3cccnc3c2O)cc1 (stereo not shown) [N-[(4-butoxyphenyl)(5-chloro-8-hydroxyquinolin-7-yl)methyl]-2-phenoxyacetamide]
inhibition at 67 µM ([1]; @ 67000 nM, read-out: Agg1 %): 50%
inhibition at […] [2]: 55%

O=C(CNCc1ccncc1)NC(c1ccccc1)c1cc(Cl)c2cccnc2c1O (stereo not shown) [Example 229, N[(5-chloro-8-hydroxyquinolin-7-yl)(phenyl)methyl]-N2-(pyridin-4-ylmethyl)glycinamide]
IC50 ([1]; read-out: Agg1 IC50): > 67 µM
Agg-2 FRET Median PCT INHIB [2]: 29%
IC50 ([2]; read-out: Agg2 IC50): > 11 µM
